Experimental data published in PubChem BioAssay (NCI).
“And” between values parts separate entries of the source, which are not always exact repeats. Equal entries are not always repeated.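 Five compound concentrations were applied to cells in 96-well plates for 48 hours; endpoints were derived by simple linear interpolation of the resulting dose-response curve. Abbreviation: GI50, concentration required for 50% inhibition of growth. TGI is the concentration that stops growth completely.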

Tests used:
Experiment in all cases: NCI anticancer screen, dose series, 48 h
[1] = system: M14 melanoma
[2] = system: UACC-257 melanoma
[3] = system: SF-268 CNS
[4] = system: PC-3 prostate
[5] = system: LOX IMVI melanoma
[6] = system: ACHN renal
[7] = system: SK-MEL-5 melanoma
[8] = system: RPMI-8226 leukemia
[9] = system: NCI-H522 lung
[10] = system: IGROV1 ovarian
[11] = system: NCI-H23 lung
[12] = system: OVCAR-3 ovarian
[13] = system: MDA-MB-231 breast
[14] = system: SF-539 CNS
[15] = system: NCI-H226 lung
[16] = system: KM12 colon
[17] = system: CAKI-1 renal
[18] = system: BT-549 breast
[19] = system: SK-MEL-28 melanoma
[20] = system: MOLT-4 leukemia
[21] = system: TK-10 renal
[22] = system: SW-620 colon
[23] = system: MCF7 breast
[24] = system: OVCAR-4 ovarian
[25] = system: U251 CNS
[26] = system: HCT-15 colon
[27] = system: HL-60(TB) leukemia
[28] = system: MDA-MB-435
[29] = system: SF-295 CNS
[30] = system: HT29 colon
[31] = system: OVCAR-8 ovarian
[32] = system: SNB-19 CNS
[33] = system: A498 renal
[34] = system: NCI/ADR-RES ovarian
[35] = system: 786-0 renal
[36] = system: HCT-116 colon
[37] = system: NCI-H460 lung
[38] = system: SR leukemia
[39] = system: A549 NSCLC
[40] = system: UACC-62 melanoma
[41] = system: K-562 leukemia
[42] = system: UO-31 renal
[43] = system: HS 578T breast
[44] = system: OVCAR-5 ovarian
[45] = system: DU-145 prostate
[46] = system: RXF 393 renal
[47] = system: EKVX NSCLC
[48] = system: COLO 205 colon
[49] = system: SNB-75 CNS
[50] = system: SN12C renal
[51] = system: SK-MEL-2 melanoma
[52] = system: MALME-3M melanoma
[53] = system: HOP-92 NSCLC
[54] = system: HCC-2998 colon
[55] = system: CCRF-CEM leukemia
[56] = system: SK-OV-3 ovarian
[57] = system: HOP-62 NSCLC

CCCN1C(=O)/C(=C/c2cccc(O)c2)SC1=Nc1ccccc1
GI50 [1]: 29000 nM | TGI [1]: 67800 nM | GI50 [2]: 18800 nM | TGI [2]: 36000 nM | GI50 [3]: 22700 nM | TGI [3]: 57300 nM | GI50 [4]: 16900 nM | TGI [4]: 33100 nM | GI50 [5]: 11800 nM | TGI [5]: 25500 nM | GI50 [6]: 16400 nM | TGI [6]: 31200 nM | GI50 [7]: 19600 nM | TGI [7]: 35200 nM | GI50 [8]: 14500 nM | TGI [8]: 34300 nM | GI50 [9]: 22300 nM | TGI [9]: 60000 nM | GI50 [10]: 20000 nM | TGI [10]: 44400 nM | GI50 [11]: 19000 nM | TGI [11]: 34300 nM | GI50 [12]: 17700 nM | TGI [12]: 32300 nM | GI50 [13]: 11400 nM | TGI [13]: 24000 nM | GI50 [14]: 18800 nM | TGI [14]: 34000 nM | GI50 [15]: 20800 nM | TGI [15]: 41200 nM | GI50 [16]: 11900 nM | TGI [16]: 26900 nM | GI50 [17]: 22000 nM | TGI [17]: 38000 nM | GI50 [18]: 17100 nM | TGI [18]: 30800 nM | GI50 [19]: 21100 nM | TGI [19]: 42500 nM | GI50 [20]: 38000 nM | TGI [20]: > 100000 nM | GI50 [21]: 6700 nM | TGI [21]: 24000 nM | GI50 [22]: 18500 nM | TGI [22]: 34400 nM | GI50 [23]: 24400 nM | TGI [23]: > 100000 nM | GI50 [24]: 23200 nM | TGI [24]: 58400 nM | GI50 [25]: 14100 nM | TGI [25]: 28200 nM | GI50 [26]: 14800 nM | TGI [26]: 29600 nM | GI50 [27]: 30800 nM | TGI [27]: > 100000 nM | GI50 [28]: 22700 nM | TGI [28]: 51300 nM | GI50 [29]: 19000 nM | TGI [29]: 83800 nM | GI50 [30]: 17300 nM | TGI [30]: 33800 nM | GI50 [31]: 19000 nM | TGI [31]: 37900 nM | GI50 [32]: 18000 nM | TGI [32]: 34500 nM | GI50 [33]: 2700 nM | TGI [33]: 17100 nM | GI50 [34]: 17300 nM | TGI [34]: 33100 nM | GI50 [35]: 20700 nM | TGI [35]: 49900 nM | GI50 [36]: 38300 nM | TGI [36]: > 100000 nM | GI50 [37]: 14800 nM | TGI [37]: 37700 nM | GI50 [38]: 17500 nM | TGI [38]: > 100000 nM | GI50 [39]: 15100 nM | TGI [39]: 31700 nM | GI50 [40]: 16400 nM | TGI [40]: 29900 nM | GI50 [41]: 6720 nM | TGI [41]: > 100000 nM | GI50 [42]: 17400 nM | TGI [42]: 34400 nM | GI50 [43]: 16700 nM | TGI [43]: 34700 nM | GI50 [44]: 16800 nM | TGI [44]: 31000 nM | GI50 [45]: 13000 nM | TGI [45]: 25600 nM | GI50 [46]: 17600 nM | TGI [46]: 36900 nM | GI50 [47]: 19200 nM | TGI [47]: 33900 nM | GI50 [48]: 18400 nM | TGI [48]: 41500 nM | GI50 [49]: 15100 nM | TGI [49]: 32900 nM | GI50 [50]: 15700 nM | TGI [50]: 29100 nM | GI50 [51]: 16600 nM | TGI [51]: 36500 nM

CC(=O)c1cnc2ccc(-c3cc(Cl)c(O)c(Cl)c3)nc2c1NC1CCC(CN(C)C)CC1 (stereo not drawn)
TGI [1]: 273 nM and 760 nM | GI50 [2]: 54.4 nM and 192 nM | TGI [2]: 234 nM and 783 nM | TGI [3]: 189 nM and 1220 nM | TGI [4]: 2500 nM and 1190 nM | GI50 [52]: 48.4 nM and 49.9 nM | TGI [52]: 220 nM and 416 nM | TGI [5]: 264 nM and 1120 nM | TGI [7]: 55.4 nM and 306 nM | GI50 [8]: 45.1 nM and 367 nM | GI50 [9]: 4.88 nM and 48 nM | TGI [12]: 78.1 nM and 562 nM | GI50 [13]: 31.6 nM and 185 nM | TGI [13]: 495 nM and 772 nM | TGI [14]: 53.1 nM and 505 nM | GI50 [15]: 39.5 nM and 81.9 nM | TGI [15]: 359 nM and 608 nM | TGI [16]: 558 nM and 2000 nM | GI50 [17]: 12.6 nM and 109 nM | TGI [17]: 672 nM and 535 nM | TGI [18]: 120 nM and 588 nM | GI50 [19]: 19.4 nM and 186 nM | TGI [19]: 171 nM and 758 nM | GI50 [53]: 11.4 nM and 52.6 nM | TGI [53]: 99 nM and 458 nM | GI50 [54]: 44.9 nM and 191 nM | GI50 [21]: 30.7 nM and 160 nM | TGI [21]: 106 nM and 664 nM | TGI [22]: 2500 nM and > 10000 nM | GI50 [23]: 17.9 nM and 169 nM | TGI [23]: 224 nM and 695 nM | GI50 [24]: 40.4 nM and 245 nM | TGI [24]: 324 nM and 2580 nM | GI50 [28]: 12.8 nM and 116 nM | TGI [28]: 384 nM and 1160 nM | GI50 [29]: 32.9 nM and 267 nM | GI50 [30]: 84.4 nM and 436 nM | TGI [30]: 888 nM and 4410 nM | GI50 [31]: 28.9 nM and 255 nM | GI50 [32]: 31.1 nM and 230 nM | TGI [32]: 2500 nM and 3820 nM | GI50 [33]: 13.7 nM and 111 nM | TGI [33]: 55.9 nM and 403 nM | GI50 [34]: 53.1 nM and 310 nM | GI50 [35]: 52.1 nM and 346 nM | TGI [35]: 289 nM and 1420 nM | GI50 [36]: 9.06 nM and 61.3 nM | TGI [36]: 2500 nM and > 10000 nM | TGI [55]: 240 nM and 1540 nM | TGI [37]: 105 nM and 1050 nM | GI50 [38]: 5.49 nM | TGI [38]: 39.8 nM | TGI [39]: 570 nM and 1450 nM | TGI [41]: 2500 nM and > 10000 nM | TGI [42]: 87.7 nM and 508 nM | TGI [43]: 107 nM and 739 nM | GI50 [44]: 61.2 nM and 207 nM | TGI [44]: 2500 nM and > 10000 nM | TGI [45]: 1080 nM and 1760 nM | GI50 [46]: 35.8 nM and 185 nM | TGI [46]: 93.9 nM and 419 nM | GI50 [47]: 48.6 nM and 337 nM | TGI [56]: 111 nM and 987 nM | GI50 [48]: 42.5 nM and 318 nM | GI50 [49]: 5.15 nM and 33.3 nM | TGI [49]: 36.8 nM and 360 nM | TGI [50]: 1340 nM and 2270 nM | GI50 [57]: 27.5 nM and 195 nM | TGI [57]: 161 nM and 959 nM | GI50 [51]: 28.8 nM and 237 nM | TGI [51]: 85.5 nM and 689 nM
